Test results taken from patent US5770625A, “Butyryl-tyrosinyl spermine, analogs thereof and methods of preparing and using same” (priority 1994, dated 1998).

Key:
[1] = test system: postsynaptic QUIS-R of locust leg muscle; experiment: Antagonism of neurally-evoked twitch contraction of locust retractor unguis nerve-muscle preparation; parameters: species or system Schistocerca gregaria; settings: for effect on the neurally-evoked twitch contraction (in words): toxin 1-10 μM
Description: Electrophysiological studies. The metathoracic retractor unguis nerve-muscle preparation of the locust Schistocerca gregaria was dissected and mounted in a small Perspex bath as described previously (21). The pharmacological activity on the locust nerve muscle preparation, using reduction in neurally evoked twitch amplitude as the measure of activity. Ten fractions were pharmacologically active. […] Further purification of this fraction by reverse-phase HPLC gave four peaks (FIG. 2B), the most pharmacologically was in the major peak (hatched FIG. 2B) . This fraction gave 1.1 mg of toxin as amorphous powder.
The retractor unguis muscle and its nerve were dissected from the metathoracic legs of adult, female locusts (Schistocerca gregaria) and mounted in a Perspex perfusion chamber as described by Usherwood and Machili (21) and Bateman, et al. (14). The muscle was stretched to maximal body length and attached at its tendon or apodeme to a Grass FT 10-strain gauge by a short length of nylon thread. The volume of the muscle bath was about 0.5 ml and its contents could be exchanged within 1 sec. The preparation was perfused continuously at the rate of 5-10 ml min^-1 (except during the application of toxin (see below)) with standard locust saline of the following composition (mM): NaCl, 180; KCl, 10; CaCl2, 2; Hepes, 10; buffered to pH 6.8. The retractor unguis muscle is innervated by two excitatory motoneurons (30) and an inhibitory motoneuron (19,32), but the influence of the latter on the responsiveness of the muscle is slight. Maximal stimulation of the retractor unguis nerve at 0.2 Hz produced a series of twitch contractions of constant amplitude, which were maintained for many hours in good preparations. The test compounds were kept at -20° C. They were dissolved in locust saline on the day of the assay and tested at room temperature. The compounds were applied by pipette to a nerve-muscle preparation such that the contents of the perfusion bath were completely replaced by the test solution. Exposure to the test compound lasted 20 min. Because of the limited availability of some of the compounds, the preparation was not perfused during this period. However, the amplitude of the retractor unguis muscle twitch rarely changed by more than 5-10% over a 20 minute period. During application of the test solutions the stimulation frequency was raised to 0.6 Hz for brief periods to test for stimulus frequency-dependent effects on twitch amplitude (31,37). Dose-inhibition data were obtained by testing the effects, on single retractor unguis muscle preparations, of a range of concentrations of the test compounds. Each concentration of the respective samples was tested at least thee times, and each compound was assayed usually over a 100-fold concentration range (a total of 7-10 concentrations). The standard deviations for twitch inhibition for any given concentration of a toxin rarely exceed 10%. Those compounds for which the deviation was greater than this are identified in Tables 1-7. There was some variation in the potency of PhTX-343 and the test compounds between nerve-muscle preparations. In order to compensate for this, the following procedure was adopted: PhTX-343 was assayed at a variety of concentrations on eight retractor unguis nerve-muscle preparations to give a cumulative dose-inhibition relationship for this toxin. The concentration of PhTX-343 which reduced the twitch contraction by 50% (IC50) was then determined by fitting a curve to the data using the following equation: [formula] where: [T]= toxin concentration, I= % inhibition, Imax =maximum inhibition= 100% and n' represents the Hill slope coefficient. […] The ratio of the actual reduction in twitch amplitude obtained with this single concentration of PhTX-343 and the 50% reduction that was anticipated from the cumulative dose-inhibition relationship for this toxin, was then used as a factor to normalize the data for the test compound. […]

[2] = test system: locust muscle QUIS-R; experiment: Voltage dependence of antagonism of locust muscle QUIS-R; settings: block relieved above about -100 mV
Description: PhTX-343 binds to the QUIS-R channel, possible at a site located within its selectivity filter (35,36). Other studies in our laboratories have shown that antagonism of locust muscle QUIS-R by PhTX-343 and compound 13, the diiodo analogue, is voltage-dependent, as one might expect for open channel blockers carrying a net positive charge. […] Cation-selective membrane channels are generally envisaged as aqueous pores lined by fixed negative charges. In the case of the amphibian nicotinic acetylcholine receptor the latter are thought to be concentrated in three clusters in the vicinity of the selectively filter (41). […] The relative disposition and number of protonated groups on the toxin seems to be important in determining potency, which appears to be maximized for a given number of protonated groups when these have a constant spacing of three methylenes on their equivalents.

[3] = target: NMDA receptors of rat brain; experiment: Inhibition of glutamate-induced [3H]MK-801 binding to synaptic membranes (filtration assay); settings: read-out: EC50 (the concentration that inhibits 50% of binding) of [3H]MK-801
Description: Binding PhTX-433 to NMDA Receptor. The NMDA receptor is identified by its high affinity for the compound (+)-5-methyl-10,11-dihydro-5H-dibenzo[a,d]cyclohepten-5,10-imine maleate (MK-801). Th is compound is an anticonvulsant introduced by Merck Sharp & Dohme Co. and is a potent non-competitive antagonist of the NMDA receptor. Binding of [^3 H]MK-801 t o synaptic membranes from rat brain after thorough washing is extremely poor. However, the binding (measured by a filtration assay) is potentiated by glutamate in a dose-dependent manner and reaches maximal potentiation at 10 μM glutamate (26). The increase in binding of [^3 H]MK-801 resulting from addition of glutamate has been used as an index of NMDA recep tor binding.

[4] = test system: postjunctional, quisqualate-sensitive glutamate receptors; experiment: Response of the retractor unguis muscle to bath-applied L-glutamate; parameters: species or system Schistocerca gregaria

SMILES	potency compared with natural PhTX-433 (in words) [1]	physiological activity relative to that of PhTX-433, by locust muscle twitch inhibition concentration ([1]; PhTX-433 = 100%) [%]	IC50 ([1]; cumulative dose-inhibition on eight nerve-muscle preparations, read-out: concentration which reduced the twitch contraction by 50% (IC50)) [µM]	effect on the neurally-evoked twitch contraction (in words) [1]	voltage dependence of antagonism [2]	EC50 [3] [µM]	effect on the response of the muscle to L-glutamate [4]	increase in potency compared with PhTX-343 [1] [fold]
CCCC(=O)N[C@@H](Cc1ccc(O)cc1)C(=O)NCCCNCCCCNCCCN [Compound 1, PhTX-343]	somewhat less active	80	23	influenced the twitch contraction in the same qualitative fashion as PhTX-433	voltage-dependent			
CCCC(=O)N[C@@H](Cc1ccc(O)cc1)C(=O)NCCCCNCCCNCCCN [Compound 2, PhTX-433]				abolished the twitch		25	reduced the response of the retractor unguis muscle to L-glutamate	
CCCC(=O)N[C@@H](Cc1cc(I)c(O)c(I)c1)C(=O)NCCCNCCCCNCCCN [Compound 13]					voltage-dependent			4.5
